Measured values as given in EP1757588A1, “Polymorph of N-Piperidinyl-5-(4-chlorophenyl)-1-(2,4-dichlorophenyl)-4,5-dihydro-1H-pyrazole-3-carboxamide and its use as a cannabinoid receptor modulator” (LABORATORIOS DEL DR. ESTEVE, S.A., priority 2005, dated 2007).

How the values were obtained:
Male NMRI mice = experiment: Mouse tetrad model (in-vivo bioassay for cannabinoid activity: hot plate, hypothermia, catalepsy, sedation); conditions: 5 mg/kg i.v.
Text: II. In-vivo bioassay system for determination of cannabinoid activity
Substances with affinity for cannabinoid receptors are known to produce a wide range of pharmacological effects. It is also known that intravenous administration of a substance with affinity for cannabinoid receptors in mice produces analgesia , hypothermia, sedation and catalepsy. Individually, none of these effects can be considered as proof that a tested substance has affinity for cannabinoid-receptors, since all of these effects are common for various classes of centrally active agents. However, substances, which show all of these effects, i.e. substances that are active in this so-called tetrad model are considered to have affinity for the cannabinoid receptors. It has further been shown that cannabinoid receptor antagonists are higly effective in blocking the effects of a cannabinoid agonist in the mouse tetrad model.
The tetrad model is described, for example, in the publication of A. C. Howlett et al, International Union of Pharmacology XXVII. Classification of Cannabinoid Receptors, Pharmacol Rev 54, 161-202 , 2002 and David R. Compton et al., "In-vivo Characterization of a Specific Cannabinoid Receptor Antagonist (SR141716A) :Inhibition of Tetrahydrocannbinol- induced Responses and Apparent Agonist Activity", J. Pharmacol. Exp. Ther. 277 , 2, 586-594, 1996. […]
Before testing in the behavioral procedures given below, mice are acclimatized to the experimental setting. Pre-Treatment control values are determined for analgesia hot plate latency (in seconds), rectal temperature, sedation and catalepsy.
In order to determine the agonistic activty of the substance to be tested, the mice are injected intravenously with the substance to be tested or the vehicle alone. 15 minutes after injection, latency in hot plate analgesia is measured.
Rectal temperature, sedation and catalepsy are measured 20 minutes after injection.
In order to determine the antagonistic activity the identical procedure is used as for the determination of the agonistic effects, but with the difference that the substance to be evaluated for its antagonistic activity is injectected 5 minutes before the intravenous injection of 1.25 mg/kg Win-55,212 a known cannabinoid-receptor agonist.
The hot plate analgesia is determined according to the method described in Woolfe D. et al. "The evaluation of analgesic action of pethidine hydrochloride (Demerol)", J. Pharmacol. Exp. Ther. 80, 300-307,1944.
The mice are placed on a hot plate (Harvard Analgesimeter) at 55 ± 0.5 °C until they show a painful sensation by licking their paws or jumping and the time for these sensations to occur is recorded. This reading is considered the basal value (B). […]
The degree of analgesia is calculated from the formula : […]

Herg channel = Herg channel (Homo sapiens, UniProt Q12809); experiment: Herg channel affinity; format: binding; conditions: general statement, no method or data given
Sequence of Herg channel (Q12809 whole entry): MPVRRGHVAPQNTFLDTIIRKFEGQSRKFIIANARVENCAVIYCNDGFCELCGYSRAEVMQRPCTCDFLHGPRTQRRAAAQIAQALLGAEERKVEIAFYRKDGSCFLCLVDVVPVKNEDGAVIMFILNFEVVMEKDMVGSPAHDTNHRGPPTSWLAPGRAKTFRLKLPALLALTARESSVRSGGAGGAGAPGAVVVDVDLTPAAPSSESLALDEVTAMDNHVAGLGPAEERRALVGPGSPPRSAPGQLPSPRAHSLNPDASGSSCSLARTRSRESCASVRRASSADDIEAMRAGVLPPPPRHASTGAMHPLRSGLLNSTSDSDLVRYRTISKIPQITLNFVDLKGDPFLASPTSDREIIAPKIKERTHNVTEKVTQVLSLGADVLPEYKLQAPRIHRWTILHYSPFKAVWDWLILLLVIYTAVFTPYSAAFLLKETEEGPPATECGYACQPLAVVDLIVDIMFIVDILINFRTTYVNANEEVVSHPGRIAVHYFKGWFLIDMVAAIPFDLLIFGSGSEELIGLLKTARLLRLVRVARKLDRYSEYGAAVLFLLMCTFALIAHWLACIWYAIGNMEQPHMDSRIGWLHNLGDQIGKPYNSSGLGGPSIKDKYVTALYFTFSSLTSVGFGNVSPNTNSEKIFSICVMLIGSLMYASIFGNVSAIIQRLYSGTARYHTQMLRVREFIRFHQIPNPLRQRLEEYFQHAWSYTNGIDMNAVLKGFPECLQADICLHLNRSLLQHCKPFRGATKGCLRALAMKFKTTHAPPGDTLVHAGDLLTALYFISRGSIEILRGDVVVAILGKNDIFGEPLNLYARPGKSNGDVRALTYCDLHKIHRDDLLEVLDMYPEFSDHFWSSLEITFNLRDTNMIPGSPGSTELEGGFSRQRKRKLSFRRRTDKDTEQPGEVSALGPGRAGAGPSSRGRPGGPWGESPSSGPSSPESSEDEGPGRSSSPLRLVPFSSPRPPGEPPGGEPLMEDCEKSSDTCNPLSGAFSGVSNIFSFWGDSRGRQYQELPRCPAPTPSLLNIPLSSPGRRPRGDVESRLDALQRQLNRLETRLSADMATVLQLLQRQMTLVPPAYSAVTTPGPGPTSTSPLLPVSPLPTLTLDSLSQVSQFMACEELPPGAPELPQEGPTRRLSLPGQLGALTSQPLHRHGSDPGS

SMILES | Agonistic effect A: Hot-Plate test (Male NMRI mice) | Agonistic effect B: Hypothermia (Male NMRI mice) | Agonistic effect C: Catalepsy (Male NMRI mice) | Agonistic effect D: Sedation (Male NMRI mice) | Herg channel affinity (Herg channel)
O=C(NN1CCCCC1)C1=NN(c2ccc(Cl)cc2Cl)C(c2ccc(Cl)cc2)C1 (centres unmarked) [Example 1, N-piperidinyl-5-(4-chlorophenyl)-1-(2,4-dichlorophenyl)-4,5-dihydro-1H-pyrazole-3-carboxamide] | 0 | 0 | 0 | 0 | –
O=C(NN1CCCCC1)C1=NN(c2ccc(Cl)cc2Cl)C(c2ccc(Cl)cc2)C1 (stereo not drawn) [β-Polymorph, β-Polymorph of N-piperidinyl-5-(4-chlorophenyl)-1-(2,4-dichlorophenyl)-4,5-dihydro-1H-pyrazole-3-carboxamide] | – | – | – | – | relatively weak
